From PMC11868579 (Nature Communications, 2024)
“And” between values parts separate entries of the source, which are not always exact repeats. Equal entries are not always repeated.

How the values were obtained:
eIF4E L85R = target: T1, eIF4E L85R (Homo sapiens, UniProt P06730, L85R); test: CETSA in eIF4E-dTAG model expressing L85R eIF4E; format: cell-based; conditions: intact cells
T1 construct: expressed in transfected cells; host or cells: H1299 eIF4E-dTAG clone C3-1, eIF4E-dTAG depleted with dTAG^V-1 before compound
Experimental: (§1) Cells (1.5 × 10^6 cells) were plated into 75 cm^2 flasks and allowed to attached overnight. After treatment with compound 4 or 5 for 6 h, they were harvested by trypsinisation and washed x2 in ice cold PBS. Cells were resuspended in 1 ml of cold PBS supplemented with protease and phosphatase inhibitors (Fisher Scientific, cat#1861281). Resuspended cells were divided into 100 μl aliquots and centrifuged at 300 x g for 3 min at 4 °C. Following centrifugation, 75μl of supernatant was removed and cells resuspended in the remaining volume. Cell suspensions were heated at 40.9, 43.7, 48.1, 52.9, 57.6, 62.4, 67.2, 71.9, 76.3 and 79.1 °C for 3 mins followed by cooling at 20 °C for 3 min[25]. Suspensions were freeze-thawed twice using liquid nitrogen. Soluble fractions were separated from cell debris by centrifuging at 20,000 x g for 30 min at 4 °C. Samples were then analysed by Western Blot.
(§2) Supplementary Fig. 18. Comparison of compound 4 binding to wild-type or […]
(§3) Cells were treated with dTAGV-1 (1 μM) for 16 hr. Compound 4 (10 μM) or compound 5 (10 μM) was then added for 6 hrs.
(§4) Vi nculin was used for loading control. Blots are from one biological repeat. b […]
(§5) was used as loading control . c Cells were treated with dTAGV -1 (1 μM) for 16 hr.
(§6) Compound 4 (50 μM) or compound 5 (50 μM) was then added for 6 hrs. […]
(§7) following incubation at 48.1 °C. Vinculin was used for loaing control. All blots are […]

eIF4E–4E-BP1 interaction = eIF4E–4E-BP1 interaction (Homo sapiens, UniProt P06730); test: Electro-chemiluminescent binding assay, eIF4E:4E-BP1, SW620 cell lysates; format: biochemical; design: endogenous in cells; host or cells: SW620 cell lysates; conditions: for 4E-BP1:eIF4E luminescence signal normalised to DMSO control: SW620, Expt 1, Expt 2, Fig. 4d
Experimental: This assay uses plates with carbon electrodes and electro-chemiluminescent labels (SULFO-TAGs) that are conjugated to detection antibodies. When an electric current is applied to the plate electrodes the SULFO-TAG labels will emit light that is measured to quantify analytes in the sample. […] The plates were washed with 3 ×150 µl/well MSD wash buffer (cat#R61AA-1; 0.2% Tween-20 in PBS), then blocked with 150 µl/well block buffer (MSD, cat# R93AA) for 1 h. […] The incubated plates were washed 4x in 150 µl in MSD wash buffer and were re-blocked by the addition of 25 μl of blocking buffer containing a 1:500 dilution of the secondary antibody and incubated for 1 hr at RT with rotational shaking. […] Plates were then washed again 4x in 150 µl in MSD wash buffer and 25 μl of a 1:50 dilution of Goat anti-rabbit Sulfo-Tag (MSD, Cat# R32AB-1) in MSD blocking buffer was added and the plates incubated for 1 h at RT with rotational shaking. After a final wash step, 150 μl Read Buffer T4X (MSD, Cat# R92-TC2) was added and the plate read using the MSD QuickPlex SQ 120 plate reader.

eIF4E W73F = target: T2, eIF4E W73F (Homo sapiens, UniProt P06730, W73F); test: CETSA in eIF4E-dTAG model expressing W73F eIF4E; format: cell-based; conditions: intact cells
T2 construct: expressed in transfected cells; host or cells: H1299 eIF4E-dTAG clone C3-1, eIF4E-dTAG depleted with dTAG^V-1 before compound
Experimental: as §1, §2, §3, §4, §5, §6, §7

[1] = target: T3, eIF4E minor variant D127N (N127) (Homo sapiens, UniProt P06730, D127N); test: Isothermal titration calorimetry, eIF4E minor variant; format: binding
T3 construct: made in house; host or cells: E. coli BL21-CodonPlus (DE3)-RIPL
Experimental: ITC experiments were performed on either a MicroCal VP-ITC or a MicroCal Auto-ITC200 at 25 °C in a buffer comprising 50 mM HEPES, 100 mM NaCl, 1 mM TCEP and 5% DMSO at pH 7.5. Typical titrations on the MicroCal VP-ITC were performed using 17 × 16.4 µL injections with a 250 s spacing between each injection and with a stirring speed of 307 rpm. Typical titrations on the MicroCal Auto-ITC200 were performed using 12 × 3 µL injections with a 150 s spacing between each injection and with a stirring speed of 750 rpm. ITC data analyses were performed with Origin 7.0 software using the “One Set of Sites” model.

[2] = system: cap-dependent and cap-independent (IRES) protein synthesis; test: Bicistronic protein synthesis reporter in HEK293 cells; format: cell-based, human; conditions: for Cap translation, Average / IRES, Average: HEK293, n=3; for Cap translation, Average: cap-dependent luciferase reporter; for IRES, Average: cap-independent luciferase driven by viral IRES
Experimental: Supplementary Fig. 10 Determination of the effects of compound 4 on protein synthesis and viability. a HEK293 cells were transfected with protein synthesis reporter expressing bicistonic mRNA with a cap-dependent luciferase reporter and a cap-independent luciferase driven by a viral IRES. Cells were treated with 1 or 10 µM […]
with compound 4 for 24 hr. […]
Source data is located in the Supplementary Source Data file

T3 sequence (P06730 36-217 D127N): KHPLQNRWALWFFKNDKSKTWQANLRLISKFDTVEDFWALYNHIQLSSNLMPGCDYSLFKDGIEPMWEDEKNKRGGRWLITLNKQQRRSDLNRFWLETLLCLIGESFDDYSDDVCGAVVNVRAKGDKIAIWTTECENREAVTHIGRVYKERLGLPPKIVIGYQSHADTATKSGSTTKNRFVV
eIF4E–4E-BP1 interaction, sequence (P06730 2-217 limits assumed): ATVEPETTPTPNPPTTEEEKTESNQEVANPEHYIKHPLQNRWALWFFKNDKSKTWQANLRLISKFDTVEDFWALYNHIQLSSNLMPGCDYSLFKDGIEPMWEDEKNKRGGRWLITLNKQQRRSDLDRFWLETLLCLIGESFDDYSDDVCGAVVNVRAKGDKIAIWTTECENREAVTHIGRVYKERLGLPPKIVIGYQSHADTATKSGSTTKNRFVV
T1 sequence (P06730 whole entry L85R): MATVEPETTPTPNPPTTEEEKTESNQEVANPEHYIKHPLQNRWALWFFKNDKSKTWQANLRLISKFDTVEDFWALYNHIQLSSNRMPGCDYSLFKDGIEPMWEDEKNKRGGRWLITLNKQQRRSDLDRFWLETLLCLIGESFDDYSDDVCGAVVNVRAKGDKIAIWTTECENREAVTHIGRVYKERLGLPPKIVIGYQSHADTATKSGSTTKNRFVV
T2 sequence (P06730 whole entry W73F): as the sequence (P06730 whole entry L85R) above, with W73F, R85L counted along it

CC[C@H](O[C@H](C)CO)c1ccc(-c2ccccc2F)cc1NCCO [Compound 4]
thermal stabilisation of L85R eIF4E (eIF4E L85R): showed evidence for compound 4 binding
4E-BP1:eIF4E luminescence signal normalised to DMSO control (eIF4E–4E-BP1 interaction; 0.4 μM): 98.1% and 93.2%
4E-BP1:eIF4E luminescence signal normalised to DMSO control (eIF4E–4E-BP1 interaction; 4 μM): 74.9% and 84.1%
4E-BP1:eIF4E luminescence signal normalised to DMSO control (eIF4E–4E-BP1 interaction; 12 μM): 74.8% and 76%
4E-BP1:eIF4E luminescence signal normalised to DMSO control (eIF4E–4E-BP1 interaction; 40 μM): 76.2% and 83.6%
effect on 4E-BP1 binding to eIF4E (eIF4E–4E-BP1 interaction; SW620 cell lysates): not 4E-BP1 binding to eIF4E
4E-BP1:eIF4E SW620, luminescence ratio normalised to DMSO control (eIF4E–4E-BP1 interaction; SW620 lysates, 100 µM, 30 min, single experiments Expt 1, Expt 2): 103% and 91%
thermal stabilisation of W73F eIF4E (eIF4E W73F): destabilised, rather than stabilised
enthalpic contribution DH ([1]; ITC, eIF4E D127N): -12.0 kcal/mol and -12.0 ± 0.5 kcal/mol
entropic penalty -TDS ([1]; ITC, eIF4E D127N): 1.4 ± 0.5 kcal/mol
LE (ligand efficiency) ([1]; minor variant D127N): 0.42 (kcal/mol)/heavy atom
Kd ([1]; read-out: eIF4E Kd, ITC, minor variant D127N): 17 nM
Cap translation, Average ([2]; 1μM): 87.46
IRES, Average ([2]; 1μM): 89.67
Cap translation, Average ([2]; 10μM): 74.14
IRES, Average ([2]; 10μM): 83.90
inhibitory activity in dual reporter assay ([2]; HEK293 cells, 1 or 10 µM, 24 hr): lacked inhibitory activity
